Experimental data as given in patent US9840500B2, “Compounds as dual inhibitors of histone methyltransferases and DNA methyltransferases” (FUNDACIÓN PARA LA INVESTIGACIÓN MÉDICA APLICADA, priority 2014, dated 2017).
Read-outs that look alike come from different tables or passages of the source.

What was measured:
DNMT1 [1] = target: T1, DNMT1 (Homo sapiens, UniProt P26358); conditions: reported in the literature (Vedadi 2011; Liu 2013); read-out: IC50 against DNMT1; cited from earlier work
Target sequence in this assay (P26358 whole entry, species assumed): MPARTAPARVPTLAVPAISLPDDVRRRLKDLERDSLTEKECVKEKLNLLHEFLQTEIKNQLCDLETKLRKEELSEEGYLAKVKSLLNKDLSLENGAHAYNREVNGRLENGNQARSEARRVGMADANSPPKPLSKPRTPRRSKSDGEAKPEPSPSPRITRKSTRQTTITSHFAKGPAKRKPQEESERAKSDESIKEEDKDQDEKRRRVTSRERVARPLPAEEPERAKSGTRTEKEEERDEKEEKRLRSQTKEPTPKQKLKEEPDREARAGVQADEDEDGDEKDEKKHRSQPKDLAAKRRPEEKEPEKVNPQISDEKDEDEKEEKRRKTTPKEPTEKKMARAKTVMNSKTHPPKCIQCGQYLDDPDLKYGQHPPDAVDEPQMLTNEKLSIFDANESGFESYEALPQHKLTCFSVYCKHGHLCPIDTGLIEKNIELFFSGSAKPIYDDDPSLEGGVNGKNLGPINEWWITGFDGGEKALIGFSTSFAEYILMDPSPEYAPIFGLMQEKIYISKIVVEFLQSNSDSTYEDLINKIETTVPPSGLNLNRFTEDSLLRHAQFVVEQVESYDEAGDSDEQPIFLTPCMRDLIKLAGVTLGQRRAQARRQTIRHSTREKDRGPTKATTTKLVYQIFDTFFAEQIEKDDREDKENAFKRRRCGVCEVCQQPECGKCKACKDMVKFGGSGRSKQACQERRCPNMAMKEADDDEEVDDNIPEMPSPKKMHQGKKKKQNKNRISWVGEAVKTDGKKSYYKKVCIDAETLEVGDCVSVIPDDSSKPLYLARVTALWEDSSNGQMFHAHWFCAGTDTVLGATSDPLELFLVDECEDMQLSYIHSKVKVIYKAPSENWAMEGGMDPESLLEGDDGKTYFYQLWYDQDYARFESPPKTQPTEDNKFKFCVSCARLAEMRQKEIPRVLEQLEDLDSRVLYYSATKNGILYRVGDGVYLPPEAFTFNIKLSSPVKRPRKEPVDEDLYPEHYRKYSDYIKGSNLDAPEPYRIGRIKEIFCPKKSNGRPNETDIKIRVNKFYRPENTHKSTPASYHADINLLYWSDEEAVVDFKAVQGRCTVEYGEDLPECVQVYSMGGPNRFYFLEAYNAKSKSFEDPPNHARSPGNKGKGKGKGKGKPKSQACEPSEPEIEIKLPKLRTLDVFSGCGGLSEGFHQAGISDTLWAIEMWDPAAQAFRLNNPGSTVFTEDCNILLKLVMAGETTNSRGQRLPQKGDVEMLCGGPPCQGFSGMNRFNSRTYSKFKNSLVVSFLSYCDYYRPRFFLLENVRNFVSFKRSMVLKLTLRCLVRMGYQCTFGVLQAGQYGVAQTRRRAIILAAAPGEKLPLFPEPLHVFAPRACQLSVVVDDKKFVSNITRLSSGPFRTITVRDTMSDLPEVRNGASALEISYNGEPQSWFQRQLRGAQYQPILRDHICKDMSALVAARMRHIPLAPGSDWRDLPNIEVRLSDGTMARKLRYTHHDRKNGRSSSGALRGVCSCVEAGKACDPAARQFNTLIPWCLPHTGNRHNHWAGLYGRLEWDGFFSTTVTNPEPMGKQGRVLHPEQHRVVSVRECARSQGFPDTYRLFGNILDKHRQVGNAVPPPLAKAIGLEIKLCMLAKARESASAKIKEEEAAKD

LAL-CUN-2 = test: Cell proliferation assay, LAL-CUN-2 (ALL); assay type: cell-based
Method: (§1) Cell proliferation was analyzed after 48 hours of in vitro treatment using the CellTiter 96 Aqueous One Solution Cell Proliferation Assay (Promega, Madison, Wis.). This is a colorimetric method for determining the number of viable cells in proliferation.
(§2) For the assay, suspension cells were cultured by triplicate at a density of 1×10^6 cells/ml in 96-well plates (100.000 cells/well, 100 μl/well), except for OCILY-3 and OCILY-10 cell lines which were cultured at a density of 0.5×10^6 cells/ml (50.000 cells/well, 100 μl/well) and for HepG2, Hep3B and PLC/PRF/5 cell ines which were cultured at a density of 3000 cells/well, 100 μl/well). Adherent cells were obtained from 80-90% confluent flasks and 100 μl of cells were seeded at a density of 5000 cells/well in 96-well plates by triplicate. Before addition of the compounds, adherent cells were allowed to attach to the bottom of the wells for 12 hours. In all cases, only the 60 inner wells were used to avoid any border effects.
(§3) After 48 hours of treatment, plates with suspension cells were centrifuged at 800 g for 10 minutes and medium was removed. The plates with adherent cells were flicked to remove medium. Then, cells were incubated with 100 ul/well of medium and 20 ul/well of CellTiter 96 Aqueous One Solution reagent. After 1-3 hours of incubation at 37° C., absorbance was measured at 490 nm in a 96-well plate reader. The background absorbance was measured in wells with only cell line medium and solution reagent. Data was calculated as a percentage of total absorbance of treated cell/absorbance of non treated cells.

Hep3B = test: Cell proliferation assay, Hep3B (HCC); assay type: cell-based; conditions: Homo sapiens, 48 hours of treatment, Table 3
Method: as §1, §2, §3

OCI-Ly3 = test: Cell proliferation assay, OCI-Ly3 (ABC-DLBCL); assay type: cell-based; conditions: Homo sapiens, 48 hours of treatment, Table 3
Method: as §1, §2, §3

DNMT1 [2] = target: T1, DNMT1; test: DNMT1 enzyme activity assay (TR-FRET, EPIgeneous methyltransferase assay); assay type: biochemical
Outline: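 Human DNMT1, added at 1 nM, with 0.5% final DMSO; activity read by TR-FRET detection of the product SAH, where signal falls as SAH rises. The value is the 665/620 nm ratio, and IC50 comes from a 4-parameter inhibition fit.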
Target sequence in this assay (P26358 whole entry): as the sequence (P26358 whole entry, species assumed) above

human G9a enzyme = target: T2, human G9a enzyme (Homo sapiens, UniProt Q96KQ7); test: G9a enzyme activity assay (TR-FRET); assay type: biochemical
T2 sequence (Q96KQ7 1-1210): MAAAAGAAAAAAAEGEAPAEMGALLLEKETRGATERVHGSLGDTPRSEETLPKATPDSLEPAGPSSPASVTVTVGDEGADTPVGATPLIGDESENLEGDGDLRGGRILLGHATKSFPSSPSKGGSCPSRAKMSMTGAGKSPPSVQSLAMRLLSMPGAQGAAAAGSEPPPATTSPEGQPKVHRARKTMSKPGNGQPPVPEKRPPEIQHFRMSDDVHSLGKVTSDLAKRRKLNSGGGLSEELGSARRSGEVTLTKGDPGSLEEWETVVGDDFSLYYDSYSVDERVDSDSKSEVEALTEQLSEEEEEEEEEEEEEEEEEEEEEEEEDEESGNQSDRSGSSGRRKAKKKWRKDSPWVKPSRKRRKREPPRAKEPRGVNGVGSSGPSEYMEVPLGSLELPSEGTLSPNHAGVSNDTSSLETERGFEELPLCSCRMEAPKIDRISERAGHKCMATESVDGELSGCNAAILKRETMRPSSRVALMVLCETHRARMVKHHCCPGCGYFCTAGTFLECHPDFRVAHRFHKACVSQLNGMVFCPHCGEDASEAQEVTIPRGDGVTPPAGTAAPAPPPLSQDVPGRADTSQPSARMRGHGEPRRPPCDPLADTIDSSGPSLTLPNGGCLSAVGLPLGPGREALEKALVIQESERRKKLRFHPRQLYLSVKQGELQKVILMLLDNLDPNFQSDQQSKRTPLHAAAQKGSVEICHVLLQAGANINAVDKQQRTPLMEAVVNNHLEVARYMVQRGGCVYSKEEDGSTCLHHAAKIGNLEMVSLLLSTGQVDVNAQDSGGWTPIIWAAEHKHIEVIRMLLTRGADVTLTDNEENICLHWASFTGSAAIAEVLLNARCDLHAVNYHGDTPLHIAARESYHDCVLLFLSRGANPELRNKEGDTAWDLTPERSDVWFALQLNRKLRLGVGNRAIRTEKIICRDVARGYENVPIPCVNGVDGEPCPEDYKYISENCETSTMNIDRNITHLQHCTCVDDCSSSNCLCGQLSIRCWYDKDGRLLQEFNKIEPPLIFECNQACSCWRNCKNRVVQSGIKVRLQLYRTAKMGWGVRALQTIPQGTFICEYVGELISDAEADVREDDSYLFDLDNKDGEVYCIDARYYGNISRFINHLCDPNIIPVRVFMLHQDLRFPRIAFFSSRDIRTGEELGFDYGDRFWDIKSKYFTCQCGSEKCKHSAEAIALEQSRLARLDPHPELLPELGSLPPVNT
Outline: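 Sf9-expressed human G9a (added as 1 nM solution), 0.5% DMSO final, with streptavidin-XL665 at 16 μM final and europium cryptate donor. After 1 h at room temperature, the 665/620 nm ratio was read against vehicle and no-enzyme controls. IC50 from a 4-parameter inhibition fit.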

CEMO-1 = test: Cell proliferation assay, CEMO-1 (ALL); assay type: cell-based, human
Method: as §1, §2, §3

OCI-Ly10 = test: Cell proliferation assay, OCI-Ly10 (ABC-DLBCL); assay type: cell-based; conditions: Homo sapiens, 48 hours of treatment, Table 3
Method: as §1, §2, §3

PLC/PRF/5 = test: Cell proliferation assay, PLC/PRF/5 (HCC); assay type: cell-based; conditions: Homo sapiens, 48 hours of treatment, Table 3
Method: as §1, §2, §3

HepG2 = test: Cell proliferation assay, HepG2 (HCC); assay type: cell-based; conditions: Homo sapiens, 48 hours of treatment, Table 3
Method: as §1, §2, §3

U266 = test: Cell proliferation assay, U266 (MM); assay type: cell-based
Method: as §1, §2, §3

MV411 = test: Cell proliferation assay, MV411 / MV4-11 (AML); assay type: cell-based
Method: as §1, §2, §3
(§4) Compounds 3-04 and 3-07 were tested against different solid tumour and oncohematological cell lines using the cell proliferation protocol described above.

OCI-AML-2 = test: Cell proliferation assay, OCI-AML-2 (AML); assay type: cell-based
Method: as §1, §2, §3, §4

JJN3 = test: Cell proliferation assay, JJN3 (MM); assay type: cell-based
Method: as §1, §2, §3

[3] = Homo sapiens, 48 hours of treatment, Table 3
[4] = Homo sapiens, U-266, Table 5 comparison
[5] = Homo sapiens, MV4-11, Table 5 comparison
[6] = Homo sapiens, OCI-AML2, Table 5 comparison
[7] = Homo sapiens, ALL, Table 5 comparison
[8] = Homo sapiens, JJN-3, Table 5 comparison

Compound	GI50 (LAL-CUN-2; 48 hours of treatment, Table 3)	GI50 (Hep3B)	GI50 (OCI-Ly3)	IC50 (DNMT1 [2])	IC50 (human G9a enzyme)	GI50 (CEMO-1; [3])	GI50 (OCI-Ly10)	GI50 (PLC/PRF/5)	GI50 (HepG2)	also measured
COc1cc2c(NC3CCN(C(C)C)CC3)nc(N3CCC(F)(F)CC3)nc2cc1OCCCN1CCCC1 [UNC0642, 2-(4,4-difluoro-1-piperidyl)-N-(1-isopropyl-4-piperidyl)-6-methoxy-7-(3-pyrrolidin-1-ylpropoxy)quinazolin-4-amine]	–	–	–	–	–	–	–	–	–	IC50 (DNMT1 [1]): > 50 µM
COc1cc2c(NC3CCN(C4CC4)CC3)cc(-c3ccc(C)o3)nc2cc1OCCCN1CCCC1 [Compound 3-20]	1 to 10 µM	0.1 to 1 µM	0.1 to 1 µM	0.1 to 0.5 µM	< 0.1 µM	0.1 to 1 µM	0.1 to 1 µM	0.1 to 1 µM	0.1 to 1 µM	–
CCc1ccc(-c2cc(NC3C4CCC3CN(C)C4)c3cc(OC)c(OCCCN4CCCC4)cc3n2)o1 (centres unmarked) [Compound 3-51]	–	0.1 to 1 µM	1 to 10 µM	0.1 to 0.5 µM	< 0.1 µM	0.1 to 1 µM	0.1 to 1 µM	0.1 to 1 µM	0.1 to 1 µM	–
Nc1ncn([C@H]2C[C@H](O)[C@@H](CO)O2)c(=O)n1 [Decitabine, reference compound]	–	–	–	–	–	–	–	–	–	GI50 (LAL-CUN-2; ALL, Table 5 comparison): ≥ 10 µM; GI50 (U266; Table 5 comparison): ≥ 10 µM; GI50 (MV411; Table 5 comparison): ≥ 10 µM; GI50 (OCI-AML-2; Table 5 comparison): ≥ 10 µM; GI50 (CEMO-1; ALL, Table 5 comparison): 0.1 to 1 µM; GI50 (JJN3; Table 5 comparison): ≥ 10 µM
Nc1ncn([C@@H]2O[C@H](CO)[C@@H](O)[C@H]2O)c(=O)n1 [5-azacytidine, reference compound]	–	–	–	–	–	–	–	–	–	GI50 (LAL-CUN-2; ALL, Table 5 comparison): ≥ 10 µM; GI50 (U266; [4]): 1 to 10 µM; GI50 (MV411; [5]): 1 to 10 µM; GI50 (OCI-AML-2; [6]): ≥ 10 µM; GI50 (CEMO-1; [7]): 1 to 10 µM; GI50 (JJN3; [8]): ≥ 10 µM
CCc1ccc(-c2cc(NCC3CCN(C4CC4)CC3)c3cc(OC)c(OCCCN4CCCC4)cc3n2)o1 [Compound 3-49]	–	0.1 to 1 µM	< 0.1 µM	0.1 to 0.5 µM	0.1 to 0.5 µM	0.1 to 1 µM	0.1 to 1 µM	0.1 to 1 µM	0.1 to 1 µM	–
COc1cc2c(NC3CCN(C(C)C)CC3)nc(C3CCCCC3)nc2cc1OCCCN1CCCC1 [UNC0638, 2-cyclohexyl-N-(1-isopropyl-4-piperidyl)-6-methoxy-7-(3-pyrrolidin-1-ylpropoxy)quinazolin-4-amine, reference compound]	–	–	–	–	–	–	–	–	–	GI50 (LAL-CUN-2; ALL, Table 5 comparison): 1 to 10 µM; GI50 (U266; [4]): ≥ 10 µM; GI50 (MV411; [5]): ≥ 10 µM; GI50 (OCI-AML-2; [6]): 1 to 10 µM; GI50 (CEMO-1; [7]): 1 to 10 µM; GI50 (JJN3; [8]): ≥ 10 µM
CCc1ccc(-c2cc(NC3CC4(CCN(C)CC4)C3)c3cc(OC)c(OCCCN4CCCC4)cc3n2)o1 [Compound 5-06, 2-(5-ethyl-2-furyl)-6-methoxy-N-(7-methyl-7-azaspiro[3.5]nonan-2-yl)-7-(3-pyrrolidin-1-ylpropoxy)quinolin-4-amine; 2,2,2-trifluoroacetic acid]	–	0.1 to 1 µM	0.1 to 1 µM	0.1 to 0.5 µM	< 0.1 µM	0.1 to 1 µM	0.1 to 1 µM	0.1 to 1 µM	0.1 to 1 µM	–
COc1cc2c(NC3CCN(C)CC3)cc(-c3ccoc3)nc2cc1OCCCN1CCCC1 [Compound 3-27]	≤ 10 µM	–	≤ 10 µM	1 to 10 µM	< 0.1 µM	1 to 10 µM	0.1 to 1 µM	–	–	–
CCc1ccc(-c2cc(NC3CC4CCC(C3)N4C)c3cc(OC)c(OCCCN4CCCC4)cc3n2)o1 (centres unmarked) [Compound 3-50]	–	1 to 10 µM	0.1 to 1 µM	0.1 to 0.5 µM	< 0.1 µM	0.1 to 1 µM	1 to 10 µM	0.1 to 1 µM	1 to 10 µM	–
COc1cc2c(NC3CCN(C)CC3)cc(-c3ccco3)nc2cc1OCCCN1CCCC1 [Compound 3-40]	0.1 to 1 µM	–	< 0.1 µM	0.1 to 0.5 µM	< 0.1 µM	< 0.1 µM	< 0.1 µM	–	–	–
CCc1ccc(-c2cc(NC3CCN(C4CC4)CC3)c3cc(OC)c(OCCCN4CCCC4)cc3n2)o1 [Compound 3-48]	–	1 to 10 µM	1 to 10 µM	0.1 to 0.5 µM	< 0.1 µM	0.1 to 1 µM	0.1 to 1 µM	≤ 10 µM	1 to 10 µM	–
COc1cc2c(NC3CCN(C)CC3)cc(-c3ccc(C)[nH]3)nc2cc1OCCCN1CCCC1 [Compound 3-31]	≤ 10 µM	–	0.1 to 1 µM	0.1 to 0.5 µM	< 0.1 µM	1 to 10 µM	0.1 to 1 µM	–	–	–
COc1cc2c(NC3CCNCC3)cc(-c3ccc(C)o3)nc2cc1OCCCN1CCCC1 [Compound 3-08]	1 to 10 µM	–	1 to 10 µM	0.1 to 0.5 µM	< 0.1 µM	1 to 10 µM	≤ 10 µM	–	–	–
